According to the NIST ThermoML archive (doi:10.1016/j.jct.2011.11.032):
Numbers after ± are expanded uncertainties.

assay: molar enthalpy of vaporization or sublimation; conditions: 298.15 K; Liquid; Static calorimetry

| molar enthalpy | Structure (SMILES) |
| --- | --- |
| 12.9 ± 0.239 kcal/mol | COc1cccc(OC)n1 [2,6-dimethoxypyridine] |
| 10.8 ± 0.311 kcal/mol | COc1ccccn1 [2-methoxypyridine] |
| 13.7 ± 0.311 kcal/mol | COc1ccncc1 [4-methoxypyridine] |
